Results from patent publication US9611221B2, “Histone demethylase inhibitors” (CELGENE QUANTICEL RESEARCH, INC., priority 2012, dated 2017).
pIC50: −log10 of the molar value.

biological target: Jarid1B (Homo sapiens (Human), UniProt Q9UGL1); test: Jarid1B in vitro enzyme inhibition assay (TR-FRET); format: biochemical; details: 0.8 nM Jarid1B, 300 nM H3K4me3-biotin peptide, 2 μM alpha-ketoglutaric acid
From the text: (§1) This assay determines the ability of a test compound to inhibit Jarid1A, Jarid1B, and JMJD2C demethylase activity. Baculovirus expressed Jarid1A (GenBank Accession #NM_001042603, AA1-1090) was purchased from BPS Bioscience (Cat#50110). Baculovirus expressed Jarid1B (GenBank Accession #NM_006618, AA 2-751) was purchased from BPS Bioscience (Cat #50121) or custom made by MolecularThroughput. Baculovirus expressed JMJD2C (GenBank Accession #BC143571, AA 2-372) was purchased from BPS Bioscience (Cat#50105).
The ability of test compounds to inhibit the activity of Jarid1B was determined in 384-well plate format under the following reaction conditions: 0.8 nM Jarid1B, 300 nM H3K4me3-biotin labeled peptide (Anaspec cat #64357), 2 μM alpha-ketoglutaric acid in assay buffer of 50 mM HEPES, pH7.3, 0.005% Brij35, 0.5 mM TCEP, 0.2 mg/ml BSA, 50 μM sodium L-ascorbate, and 2 μM ammonium iron(II) sulfate. Reaction product was determined quantitatively by TR-FRET after the addition of detection reagent Phycolink Streptavidin-allophycocyanin (Prozyme) and Europium-anti-mono- or di-methylated histone H3 lysine 4 (H3K4me1-2) antibody (PerkinElmer) in the presence of 5 mM EDTA in LANCE detection buffer (PerkinElmer) at a final concentration of 25 nM and 1 nM, respectively.
(§2) The reaction mixture was incubated at room temperature for 30 minutes, and terminated by the addition of 6 μl of 5 mM EDTA in LANCE detection buffer containing 50 nM Phycolink Streptavidin-allophycocyanin and 2 nM Europium-anti-H3K4me1-2 antibody. Plates were read by EnVisionMultilabel Reader in TR-FRET mode (excitation at 320 nm, emission at 615 nm and 665 nm) after 1 hour incubation at room temperature. A ratio was calculated (665/615) for each well and fitted to determine inhibition constant (IC50).

Jarid1B, sequence (Q9UGL1 2-751): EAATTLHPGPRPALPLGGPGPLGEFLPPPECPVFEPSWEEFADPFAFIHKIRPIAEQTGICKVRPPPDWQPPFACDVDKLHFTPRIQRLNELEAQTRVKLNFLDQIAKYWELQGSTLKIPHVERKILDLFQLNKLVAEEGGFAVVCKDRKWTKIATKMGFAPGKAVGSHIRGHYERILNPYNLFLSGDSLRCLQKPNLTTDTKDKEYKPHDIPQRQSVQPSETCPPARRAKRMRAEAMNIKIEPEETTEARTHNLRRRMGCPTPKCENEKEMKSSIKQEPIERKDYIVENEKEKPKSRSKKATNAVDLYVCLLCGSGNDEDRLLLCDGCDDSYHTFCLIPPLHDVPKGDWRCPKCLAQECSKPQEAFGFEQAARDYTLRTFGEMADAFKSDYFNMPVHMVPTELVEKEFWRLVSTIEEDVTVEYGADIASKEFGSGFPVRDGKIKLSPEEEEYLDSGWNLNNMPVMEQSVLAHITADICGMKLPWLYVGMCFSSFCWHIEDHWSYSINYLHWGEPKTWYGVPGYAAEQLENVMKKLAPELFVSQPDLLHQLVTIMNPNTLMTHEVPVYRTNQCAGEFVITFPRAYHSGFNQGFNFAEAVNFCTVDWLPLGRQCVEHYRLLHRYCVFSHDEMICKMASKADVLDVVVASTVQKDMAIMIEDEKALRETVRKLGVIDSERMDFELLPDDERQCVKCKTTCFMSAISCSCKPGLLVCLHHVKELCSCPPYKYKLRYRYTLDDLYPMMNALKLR

pIC50	Structure (SMILES)
≥ 7.00	O=C(O)c1ccncc1NCc1ccccc1F [Example 2, 3-[(2-fluorobenzyl)amino)pyridine-4-carboxylic acid]
≥ 7.00	O=C(O)c1ccncc1NCc1cccc(F)c1 [Example 3, 3-[(3-fluorobenzyl)amino)pyridine-4-carboxylic acid]

biological target: JMJD2C (Homo sapiens (Human), UniProt Q9H3R0); test: JMJD2C in vitro enzyme inhibition assay (TR-FRET); format: biochemical; details: 0.3 nM JMJD2C, 300 nM H3K9me3-biotin peptide, 2 μM alpha-ketoglutaric acid
From the text: as §1
The ability of test compounds to inhibit the activity of JMJD2C was determined in 384-well plate format under the following reaction conditions: 0.3 nM JMJD2C, 300 nM H3K9me3-biotin labeled peptide (Anaspec cat #64360), 2 μM alpha-ketoglutaric acid in assay buffer of 50 mM HEPES, pH7.3, 0.005% Brij35, 0.5 mM TCEP, 0.2 mg/ml BSA, 50 μM sodium L-ascorbate, and 2 μM ammonium iron(II) sulfate. Reaction product was determined quantitatively by TR-FRET after the addition of detection reagent Phycolink Streptavidin-allophycocyanin (Prozyme) and Europium-anti-di-methylated histone H3 lysine 9 (H3K9me2) antibody (PerkinElmer) in the presence of 5 mM EDTA in LANCE detection buffer (PerkinElmer) at a final concentration of 50 nM and 1 nM, respectively.
as §2, with “containing 100” for “containing 50”, “nM Europium-anti-H3K9me2” for “nM Europium-anti-H3K4me1-2”

JMJD2C, sequence (Q9H3R0 2-372): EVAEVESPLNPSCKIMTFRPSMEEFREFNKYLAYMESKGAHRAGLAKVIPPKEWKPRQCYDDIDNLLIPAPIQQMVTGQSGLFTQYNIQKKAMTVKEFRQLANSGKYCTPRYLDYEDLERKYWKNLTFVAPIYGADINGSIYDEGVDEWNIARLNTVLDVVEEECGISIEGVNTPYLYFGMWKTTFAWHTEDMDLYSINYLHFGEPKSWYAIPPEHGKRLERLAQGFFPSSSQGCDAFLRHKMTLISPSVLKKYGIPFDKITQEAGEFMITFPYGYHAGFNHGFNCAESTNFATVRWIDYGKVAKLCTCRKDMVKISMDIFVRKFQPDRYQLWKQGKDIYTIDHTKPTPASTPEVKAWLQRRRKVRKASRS

Structure (SMILES)	pIC50
O=C(O)c1ccncc1NCc1ccccc1F [Example 2, 3-[(2-fluorobenzyl)amino)pyridine-4-carboxylic acid]	≥ 7.00
O=C(O)c1ccncc1NCc1cccc(F)c1 [Example 3, 3-[(3-fluorobenzyl)amino)pyridine-4-carboxylic acid]	≥ 7.00
O=C(O)c1ccncc1NCC1CCCc2cc(OCCC(F)(F)F)ccc21 (centres unmarked) [Example 79]	6.00 to 7.00
O=C(O)c1ccncc1NC[C@H]1CCOc2cc(-c3ccccc3)ccc21 [Example 83, 3-({[(4S)-7-phenyl-3,4-dihydro-2H-chromen-4-yl]methyl}amino)pyridine-4-carboxylic acid]	6.00 to 7.00
O=C(O)c1ccncc1NC[C@@H]1CCOc2cc(-c3ccccc3)ccc21 [Example 84, 3-({[(4R)-7-phenyl-3,4-dihydro-2H-chromen-4-yl]methyl}amino)pyridine-4-carboxylic acid]	6.00 to 7.00
O=C(O)c1ccncc1NC[C@H]1CCOc2cc(-c3cccc(F)c3)ccc21 [Example 85, 3-({[(4S)-7-(3-fluorophenyl)-3,4-dihydro-2H-chromen-4-yl]methyl}amino)pyridine-4-carboxylic acid]	6.00 to 7.00
O=C(O)c1ccncc1NC[C@@H]1CCOc2cc(-c3cccc(F)c3)ccc21 [Example 86, 3-({[(4R)-7-(3-fluorophenyl)-3,4-dihydro-2H-chromen-4-yl]methyl}amino)pyridine-4-carboxylic acid]	5.00 to 6.00
O=C(O)c1ccncc1NCC1CCCc2cc(OCCc3ccccc3)ccc21 (centres unmarked) [Example 89, 3-({[6-(2-phenylethoxy)-1,2,3,4-tetrahydronaphthalen-1-yl]methyl}amino)pyridin-4-carboxylic acid]	6.00 to 7.00
O=C(O)c1ccncc1NCC1CCOc2cc(CCC3CC3)ccc21 (centres unmarked) [Example 91, 3-({[7-(2-cyclopropylethyl)-3,4-dihydro-2H-chromen-4-yl]methyl}amino)pyridine-4-carboxylic acid]	6.00 to 7.00
O=C(O)c1ccncc1NC[C@H]1CCOc2cc(-c3ccc(F)cc3)ccc21 [Example 93, 3-({[(4S)-7-(4-fluorophenyl)-3,4-dihydro-2H-chromen-4-yl]methyl}amino)pyridine-4-carboxylic acid]	6.00 to 7.00
O=C(O)c1ccncc1NC[C@@H]1CCOc2cc(-c3ccc(F)cc3)ccc21 [Example 94, 3-({[(4R)-7-(4-fluorophenyl)-3,4-dihydro-2H-chromen-4-yl]methyl}amino)pyridine-4-carboxylic acid]	5.00 to 6.00
O=C(O)c1ccncc1NC[C@H]1CCOc2cc(-c3ccccc3F)ccc21 [Example 95, 3-({[(4S)-7-(2-fluorophenyl)-3,4-dihydro-2H-chromen-4-yl]methyl}amino)pyridine-4-carboxylic acid]	6.00 to 7.00
O=C(O)c1ccncc1NC[C@@H]1CCOc2cc(-c3ccccc3F)ccc21 [Example 96, 3-({[(4R)-7-(2-fluorophenyl)-3,4-dihydro-2H-chromen-4-yl]methyl}amino)pyridine-4-carboxylic acid]	5.00 to 6.00
O=C(O)c1ccncc1NC[C@H]1CCCc2cc(OCCC(F)(F)F)ccc21 [Example 99, 3-({[(1S)-6-(3,3,3-trifluoropropoxy)-1,2,3,4-tetrahydronaphthalen-1-yl]methyl}amino)pyridine-4-carboxylic acid]	6.00 to 7.00
O=C(O)c1ccncc1NC[C@@H]1CCCc2cc(OCCC(F)(F)F)ccc21 [Example 100, 3-({[(1R)-6-(3,3,3-trifluoropropoxy)-1,2,3,4-tetrahydronaphthalen-1-yl]methyl}amino)pyridine-4-carboxylic acid]	6.00 to 7.00
O=C(O)c1ccnnc1NCC1CCCc2cc(OCCC(F)(F)F)ccc21 (centres unmarked) [Example 101, 3-({[6-(3,3,3-trifluoropropoxy)-1,2,3,4-tetrahydronaphthalen-1-yl]methyl}amino)pyridazine-4-carboxylic acid]	6.00 to 7.00
COc1ccc2c(c1F)CCCC2CNc1cnccc1C(=O)O (centres unmarked) [Example 102, 3-{[(5-fluoro-6-methoxy-1,2,3,4-tetrahydronaphthalen-1-yl)methyl]amino}pyridine-4-carboxylic acid]	6.00 to 7.00
O=C(O)c1ccncc1NCC1CCCc2cc(Oc3cccc(C(F)(F)F)n3)ccc21 (centres unmarked) [Example 104, 3-{[(6-{[6-(trifluoromethyl)pyridin-2-yl]oxy}-1,2,3,4-tetrahydronaphthalen-1-yl)methyl]amino}pyridine-4-carboxylic acid]	6.00 to 7.00

Next, values leading:

pIC50	Structure (SMILES)
6.00 to 7.00	O=C(O)c1ccncc1NCC1CCCc2ccc(-c3ccccc3)cc21 (centres unmarked) [Example 73, 3-{[(7-phenyl-1,2,3,4-tetrahydronaphthalen-1-yl)methyl]amino}pyridine-4-carboxylic acid]
6.00 to 7.00	COc1cccc2c1CCCC2CNc1cnccc1C(=O)O (centres unmarked) [Example 74, 3-{[(5-methoxy-1,2,3,4-tetrahydronaphthalen-1-yl)methyl]amino}pyridine-4-carboxylic acid]
6.00 to 7.00	O=C(O)c1ccncc1NCC1CCOc2cc(C3CC3)ccc21 (centres unmarked) [Example 75, 3-{[(7-cyclopropyl-3,4-dihydro-2H-chromen-4-yl)methyl]amino}pyridine-4-carboxylic acid]
5.00 to 6.00	O=C(O)c1ccncc1NCC1CCCc2c(OCC3CC3)cccc21 (centres unmarked) [Example 76]
5.00 to 6.00	O=C(O)c1ccncc1NCC1CCCc2c(Oc3ccccc3)cccc21 (centres unmarked) [Example 77, 3-{[(5-phenoxy-1,2,3,4-tetrahydronaphthalen-1-yl)methyl]amino}pyridine-4-carboxylic acid]
6.00 to 7.00	O=C(O)c1ccncc1NCC1CCSc2ccccc21 (centres unmarked) [Example 78, 3-[(3,4-dihydro-2H-thiochromen-4-ylmethyl)amino]pyridine-4-carboxylic acid]
6.00 to 7.00	O=C(O)c1ccncc1NCC1CCCc2cc(OCC3CC3)ccc21 (centres unmarked) [Example 81]
6.00 to 7.00	CN1CCC(CNc2cnccc2C(=O)O)c2ccccc21 (centres unmarked) [Example 82, 3{[(1-methyl-1,2,3,4-tetrahydroquinolin-4-yl)methyl]amino}pyridine-4-carboxylic acid]
≥ 7.00	O=C(O)c1ccncc1NC[C@H]1CCOc2cc(C3CC3)ccc21 [Example 87, 3-({[(4S)-7-cyclopropyl-3,4-dihydro-2H-chromen-4-yl]methyl}amino)pyridine-4-carboxylic acid]
6.00 to 7.00	O=C(O)c1ccncc1NC[C@@H]1CCOc2cc(C3CC3)ccc21 [Example 88, 3-({[(4R)-7-cyclopropyl-3,4-dihydro-2H-chromen-4-yl]methyl}amino)pyridine-4-carboxylic acid]
6.00 to 7.00	O=C(O)c1ccncc1NCC1CCCc2cc(OCC(F)(F)F)ccc21 (centres unmarked) [Example 90, 3-({[6-(2,2,2-trifluoroethoxy)-1,2,3,4-tetrahydronaphthalen-1-yl]methyl}amino)pyridine-4-carboxylic acid]
5.00 to 6.00	O=C(O)c1ccncc1NCC1CCCc2cc(OC(F)(F)F)ccc21 (centres unmarked) [Example 92, 3-({[6-(trifluoromethoxy)-1,2,3,4-tetrahydronaphthalen-1-yl]methyl}amino)pyridine-4-carboxylic acid]
6.00 to 7.00	O=C(O)c1ccncc1NC[C@H]1CCCc2cc(OCCC3CC3)ccc21 [Example 97, 3-({[(1S)-6-(2-cyclopropylethoxy)-1,2,3,4-tetrahydronaphthalen-1-yl]methyl}amino)pyridine-4-carboxylic acid]
5.00 to 6.00	O=C(O)c1ccncc1NC[C@@H]1CCCc2cc(OCCC3CC3)ccc21 [Example 98, 3-({[(1R)-6-(2-cyclopropylethoxy)-1,2,3,4-tetrahydronaphthalen-1-yl]methyl}amino)pyridine-4-carboxylic acid]
6.00 to 7.00	Cc1ccc2c(c1C)CCCC2CNc1cnccc1C(=O)O (centres unmarked) [Example 103, 3-{[(5,6-dimethyl-1,2,3,4-tetrahydronaphthalen-1-yl)methyl]amino}pyridine-4-carboxylic acid]
